Values quoted from earlier work, collected in patent publication US20070014883A1, “Method for treating osteoarthritis” (priority 2005, published 2007).
“Also recorded” adds a separate entry of the source.

Assays:
MMP-1 = biological target: T1, MMP-1 (Homo sapiens, UniProt P03956); settings: reference 24
T1 sequence (P03956 100-469): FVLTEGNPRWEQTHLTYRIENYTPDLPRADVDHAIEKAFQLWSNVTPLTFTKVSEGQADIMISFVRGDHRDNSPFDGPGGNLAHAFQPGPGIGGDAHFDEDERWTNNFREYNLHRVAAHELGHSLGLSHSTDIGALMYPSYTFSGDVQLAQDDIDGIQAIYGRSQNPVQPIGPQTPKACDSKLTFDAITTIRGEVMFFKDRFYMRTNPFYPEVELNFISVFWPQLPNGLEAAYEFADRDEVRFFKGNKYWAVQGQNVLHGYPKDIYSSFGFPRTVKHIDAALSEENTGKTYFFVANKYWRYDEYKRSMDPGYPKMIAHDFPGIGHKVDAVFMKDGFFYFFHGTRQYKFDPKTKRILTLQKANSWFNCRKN

MMP-9 = MMP-9 (Homo sapiens, UniProt P14780); settings: for Inhibitory activity against MMP-9, potency relative to captopril: more potent than captopril; for Inhibition of MMP-9: reference 24
Chain of MMP-9 (P14780 94-707, species assumed): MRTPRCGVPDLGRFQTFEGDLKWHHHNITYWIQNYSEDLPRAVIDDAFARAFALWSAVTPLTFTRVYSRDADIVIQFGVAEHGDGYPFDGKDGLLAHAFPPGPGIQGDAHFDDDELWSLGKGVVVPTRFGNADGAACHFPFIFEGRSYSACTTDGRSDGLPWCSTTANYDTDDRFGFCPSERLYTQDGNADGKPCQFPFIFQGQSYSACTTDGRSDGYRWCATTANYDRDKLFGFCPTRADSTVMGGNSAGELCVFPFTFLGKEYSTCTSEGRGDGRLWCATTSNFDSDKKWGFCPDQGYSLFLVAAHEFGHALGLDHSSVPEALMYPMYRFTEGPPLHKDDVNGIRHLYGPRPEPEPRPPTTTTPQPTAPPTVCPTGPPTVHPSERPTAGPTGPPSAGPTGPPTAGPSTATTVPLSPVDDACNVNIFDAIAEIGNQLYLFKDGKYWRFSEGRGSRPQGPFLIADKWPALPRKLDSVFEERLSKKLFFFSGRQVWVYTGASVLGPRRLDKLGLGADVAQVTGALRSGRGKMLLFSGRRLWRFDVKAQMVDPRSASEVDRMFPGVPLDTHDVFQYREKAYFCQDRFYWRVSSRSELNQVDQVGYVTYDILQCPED

MMP-2 = biological target: T2, MMP-2 (Homo sapiens, UniProt P08253); settings: for Inhibitory activity against MMP-2, potency relative to captopril: more potent than captopril; for Inhibition of MMP-2: reference 24
T2 sequence (P08253 110-660): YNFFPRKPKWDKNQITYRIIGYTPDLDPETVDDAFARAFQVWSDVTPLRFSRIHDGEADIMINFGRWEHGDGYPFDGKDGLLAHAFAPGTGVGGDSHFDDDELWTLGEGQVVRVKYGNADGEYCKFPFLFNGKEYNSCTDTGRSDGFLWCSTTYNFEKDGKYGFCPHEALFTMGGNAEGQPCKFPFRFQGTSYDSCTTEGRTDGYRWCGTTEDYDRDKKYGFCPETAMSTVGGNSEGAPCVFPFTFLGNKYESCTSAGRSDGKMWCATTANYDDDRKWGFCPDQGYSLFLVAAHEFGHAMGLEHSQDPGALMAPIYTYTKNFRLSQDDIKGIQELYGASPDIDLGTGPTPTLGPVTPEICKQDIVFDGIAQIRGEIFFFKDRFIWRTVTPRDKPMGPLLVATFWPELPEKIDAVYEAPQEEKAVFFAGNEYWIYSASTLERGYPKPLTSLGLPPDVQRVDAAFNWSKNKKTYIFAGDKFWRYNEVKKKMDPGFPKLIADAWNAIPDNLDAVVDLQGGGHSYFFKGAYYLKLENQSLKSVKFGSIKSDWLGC

SMILES	Inhibition of MMP-1 (MMP-1)	Inhibitory activity against MMP-9, potency relative to captopril (MMP-9)	Inhibition of MMP-9 (MMP-9)	Inhibitory activity against MMP-2, potency relative to captopril (MMP-2)	Inhibition of MMP-2 (MMP-2)
COc1cc(CC2CCC(=O)O2)ccc1O (stereo not shown) [M2, δ-(3-methoxy-4-hydroxyphenyl)-γ-valerolactone]	strong inhibitory activity; also recorded: more potent than the parent molecules	100 fold	strong inhibitory activity; also recorded: more potent than the parent molecules	100 fold	strong inhibitory activity; also recorded: more potent than the parent molecules
O=C1CCC(Cc2ccc(O)c(O)c2)O1 (stereo not shown) [M1, δ-(3,4-dihydroxy-phenyl)-γ-valerolactone]	strong inhibitory activity; also recorded: more potent than the parent molecules	100 fold	strong inhibitory activity; also recorded: more potent than the parent molecules	100 fold	strong inhibitory activity; also recorded: more potent than the parent molecules
